ChEMBL document CHEMBL4673373, “Discovery and optimization of substituted oxalamides as novel heme-displacing IDO1 inhibitors” (Bioorg Med Chem Lett, 2021)

How the values were obtained:
[1] = Metabolic stability in mouse liver microsomes assessed as intrinsic clearance; type: ADME, Microsome; conditions: read-out: CLH
[2] = Metabolic stability in human liver microsomes assessed as intrinsic clearance; type: ADME, Microsome; conditions: read-out: CLH
[3] = target: T1, Indoleamine 2,3-dioxygenase 1 (Homo sapiens, UniProt P14902); assay: Inhibition of IDO1 in human SKOV3 cells; type: cell-based, SK-OV-3
Target sequence in this assay (P14902 whole entry): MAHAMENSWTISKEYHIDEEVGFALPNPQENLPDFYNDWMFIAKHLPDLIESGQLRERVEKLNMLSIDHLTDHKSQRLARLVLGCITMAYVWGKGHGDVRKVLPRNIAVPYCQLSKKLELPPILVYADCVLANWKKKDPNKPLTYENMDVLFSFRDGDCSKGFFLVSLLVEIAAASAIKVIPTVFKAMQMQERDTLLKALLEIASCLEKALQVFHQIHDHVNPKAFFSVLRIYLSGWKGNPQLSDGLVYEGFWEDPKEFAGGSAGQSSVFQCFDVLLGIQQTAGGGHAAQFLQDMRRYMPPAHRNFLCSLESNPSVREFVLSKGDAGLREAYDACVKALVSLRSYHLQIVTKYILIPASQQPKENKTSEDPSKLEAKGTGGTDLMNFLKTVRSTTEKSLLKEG

[4] = target: Tryptophan 2,3-dioxygenase (Homo sapiens, UniProt P48775); assay: Inhibition of TDO in HEK cells; type: cell-based
hERG (KCNH2) [5] = target: T2, hERG (KCNH2) (Homo sapiens, UniProt Q12809); assay: Inhibition of human ERG at 10 uM relative to control
[6] = Half life in mouse at 10 mg/kg, po; type: ADME, organism-based; conditions: in vivo
[7] = AUC(0 to 8 hrs) in mouse at 10 mg/kg, po; type: ADME, organism-based; design: route oral, time 8 hrs, dose 10 mg/kg; conditions: in vivo
[8] = Cmax in mouse at 10 mg/kg, po; type: ADME, organism-based; design: route oral, dose 10 mg/kg; conditions: in vivo
hERG (KCNH2) [9] = target: T2, hERG (KCNH2); assay: Inhibition of human ERG assessed as reduction in channel tail current at 10 uM by patch clamp assay relative to control
Cytochrome P450 2C8 = target: T3, Cytochrome P450 2C8 (Homo sapiens, UniProt P10632); assay: Inhibition of CYP2C8 (unknown origin); type: ADME
T3 sequence (P10632 whole entry): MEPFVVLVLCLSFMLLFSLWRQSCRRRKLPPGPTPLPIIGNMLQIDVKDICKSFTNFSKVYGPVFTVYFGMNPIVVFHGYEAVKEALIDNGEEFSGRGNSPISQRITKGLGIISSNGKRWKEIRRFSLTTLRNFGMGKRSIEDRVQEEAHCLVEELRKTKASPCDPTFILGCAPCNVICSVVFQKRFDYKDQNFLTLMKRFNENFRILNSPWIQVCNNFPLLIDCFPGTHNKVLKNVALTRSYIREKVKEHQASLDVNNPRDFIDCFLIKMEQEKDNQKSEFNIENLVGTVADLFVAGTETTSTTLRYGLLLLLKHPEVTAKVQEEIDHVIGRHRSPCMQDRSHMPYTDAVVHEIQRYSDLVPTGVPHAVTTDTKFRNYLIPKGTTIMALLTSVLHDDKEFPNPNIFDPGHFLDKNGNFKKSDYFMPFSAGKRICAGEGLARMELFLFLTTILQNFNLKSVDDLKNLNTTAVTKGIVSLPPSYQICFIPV

[10] = Plasma protein binding in mouse; type: ADME, cell-free; conditions: read-out: PPB (converted)
[11] = Plasma protein binding in human; type: ADME, cell-free; conditions: read-out: PPB (converted)
[12] = target: T1, Indoleamine 2,3-dioxygenase 1; assay: Inhibition of IDO1 in human whole blood; type: tissue-based
Target sequence in this assay (P14902 whole entry): as the sequence (P14902 whole entry) above

[13] = target: T1, Indoleamine 2,3-dioxygenase 1; assay: Binding affinity to IDO1 (unknown origin) assessed as change in melting temperature at 5 uM by thermal shift assay
Target sequence in this assay (P14902 whole entry, looked up): as the sequence (P14902 whole entry) above

[14] = target: T1, Indoleamine 2,3-dioxygenase 1; assay: Inhibition of IDO1 (unknown origin) by enzymatic assay
Target sequence in this assay (P14902 whole entry): as the sequence (P14902 whole entry) above

Cytochrome P450 2C9 = Cytochrome P450 2C9 (Homo sapiens, UniProt P11712); assay: Inhibition of CYP2C9 (unknown origin); type: ADME
Cytochrome P450 2D6 = Cytochrome P450 2D6 (Homo sapiens, UniProt P10635); assay: Inhibition of CYP2D6 (unknown origin); type: ADME
Chain of Cytochrome P450 2D6 (P10635 whole entry): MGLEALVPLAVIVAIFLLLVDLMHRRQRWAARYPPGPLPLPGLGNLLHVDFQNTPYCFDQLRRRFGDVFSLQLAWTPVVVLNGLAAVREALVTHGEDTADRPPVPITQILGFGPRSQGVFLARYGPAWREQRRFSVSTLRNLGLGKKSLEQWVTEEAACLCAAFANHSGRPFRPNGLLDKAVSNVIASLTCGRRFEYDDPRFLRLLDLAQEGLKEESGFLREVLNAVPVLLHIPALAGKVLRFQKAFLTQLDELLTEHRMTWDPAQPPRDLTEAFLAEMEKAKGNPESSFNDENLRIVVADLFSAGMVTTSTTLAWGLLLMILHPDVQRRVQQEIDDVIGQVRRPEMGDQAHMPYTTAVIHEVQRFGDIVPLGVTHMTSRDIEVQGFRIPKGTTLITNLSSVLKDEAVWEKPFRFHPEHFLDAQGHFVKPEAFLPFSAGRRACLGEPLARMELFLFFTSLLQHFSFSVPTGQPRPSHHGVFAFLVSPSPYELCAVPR

Chain of Tryptophan 2,3-dioxygenase (P48775 whole entry): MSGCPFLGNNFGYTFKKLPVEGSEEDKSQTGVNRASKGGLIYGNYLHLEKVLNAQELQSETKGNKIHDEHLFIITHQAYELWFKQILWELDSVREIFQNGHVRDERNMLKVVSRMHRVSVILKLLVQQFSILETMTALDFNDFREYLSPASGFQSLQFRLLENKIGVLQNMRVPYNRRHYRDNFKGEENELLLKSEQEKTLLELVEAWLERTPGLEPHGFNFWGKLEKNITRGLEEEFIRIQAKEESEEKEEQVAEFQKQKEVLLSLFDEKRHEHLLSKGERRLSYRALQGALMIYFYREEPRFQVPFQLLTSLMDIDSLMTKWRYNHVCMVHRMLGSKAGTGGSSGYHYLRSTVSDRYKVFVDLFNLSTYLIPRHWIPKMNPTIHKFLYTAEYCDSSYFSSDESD
T2 sequence (Q12809 whole entry): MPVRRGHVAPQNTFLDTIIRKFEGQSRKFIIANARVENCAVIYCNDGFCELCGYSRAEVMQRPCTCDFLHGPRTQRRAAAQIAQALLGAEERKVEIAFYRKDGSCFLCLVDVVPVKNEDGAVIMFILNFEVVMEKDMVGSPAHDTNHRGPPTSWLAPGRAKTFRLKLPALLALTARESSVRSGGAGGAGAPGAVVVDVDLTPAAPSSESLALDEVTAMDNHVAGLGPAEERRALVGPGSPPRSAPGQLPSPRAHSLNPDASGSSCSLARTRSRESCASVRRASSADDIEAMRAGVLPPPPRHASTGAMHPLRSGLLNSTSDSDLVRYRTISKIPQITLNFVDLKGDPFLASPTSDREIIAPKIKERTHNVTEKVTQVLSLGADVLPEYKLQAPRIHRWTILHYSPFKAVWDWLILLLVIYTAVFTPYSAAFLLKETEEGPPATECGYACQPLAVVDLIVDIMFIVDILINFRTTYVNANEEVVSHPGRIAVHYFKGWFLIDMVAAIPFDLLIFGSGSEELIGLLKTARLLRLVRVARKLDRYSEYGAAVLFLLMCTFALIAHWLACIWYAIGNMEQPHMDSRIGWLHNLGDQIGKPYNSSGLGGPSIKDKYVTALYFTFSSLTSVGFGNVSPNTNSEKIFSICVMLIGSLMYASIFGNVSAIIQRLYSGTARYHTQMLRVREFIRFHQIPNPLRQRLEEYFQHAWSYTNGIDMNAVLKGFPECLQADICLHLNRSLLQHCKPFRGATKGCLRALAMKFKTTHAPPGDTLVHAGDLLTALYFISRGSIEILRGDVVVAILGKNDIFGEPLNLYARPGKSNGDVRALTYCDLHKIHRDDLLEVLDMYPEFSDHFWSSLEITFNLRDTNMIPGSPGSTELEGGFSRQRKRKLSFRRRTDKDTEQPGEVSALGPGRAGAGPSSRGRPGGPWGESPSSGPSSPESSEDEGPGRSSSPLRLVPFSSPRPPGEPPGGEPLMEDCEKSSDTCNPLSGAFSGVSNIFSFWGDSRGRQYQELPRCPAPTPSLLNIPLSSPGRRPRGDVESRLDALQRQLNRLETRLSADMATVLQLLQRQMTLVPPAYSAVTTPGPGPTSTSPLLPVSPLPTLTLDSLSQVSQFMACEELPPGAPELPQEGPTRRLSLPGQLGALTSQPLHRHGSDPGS
Chain of Cytochrome P450 2C9 (P11712 whole entry): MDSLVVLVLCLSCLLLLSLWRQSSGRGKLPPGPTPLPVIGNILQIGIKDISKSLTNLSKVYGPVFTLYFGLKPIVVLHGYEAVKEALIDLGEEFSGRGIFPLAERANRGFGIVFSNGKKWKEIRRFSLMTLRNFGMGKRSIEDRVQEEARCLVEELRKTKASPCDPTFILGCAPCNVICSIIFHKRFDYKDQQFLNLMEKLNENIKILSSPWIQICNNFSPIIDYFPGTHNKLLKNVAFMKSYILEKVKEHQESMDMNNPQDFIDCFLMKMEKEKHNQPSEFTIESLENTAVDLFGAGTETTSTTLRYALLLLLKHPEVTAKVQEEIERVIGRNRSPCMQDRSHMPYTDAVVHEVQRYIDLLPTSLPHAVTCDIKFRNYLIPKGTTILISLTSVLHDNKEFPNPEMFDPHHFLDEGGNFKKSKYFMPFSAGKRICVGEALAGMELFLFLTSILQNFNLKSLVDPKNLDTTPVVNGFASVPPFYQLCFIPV

| SMILES | microsomal CLint [1] [µL/min/mg] | microsomal CLint [2] [µL/min/mg] | IC50 [3] [nM] | IC50 [4] [µM] | inhibition at 10 µM (hERG (KCNH2) [5]) [%] | further results |
| --- | --- | --- | --- | --- | --- | --- |
| O=C(Nc1ccc(Cl)cc1F)C(=O)N1CCC(c2ccnc3ccc(F)cc23)CC1 | 108 | 10 | 7 | 6.7 |  |  |
| CC1(C)CN(C(=O)C(=O)Nc2ccc(Cl)cc2)CCC1c1ccnc2ccc(F)cc12 (racemic) | 72.9 | 28.8 | 23 | 4.5 | 71 |  |
| O=C(Nc1ccc(Cl)cc1)C(=O)N1CC[C@H](c2ccnc3ccc(F)cc23)[C@@H](O)C1 (stereo in doubt) | 17 | 4 | 6.1 | 14 | 18 | half-life [6]: 84 min; AUC(0-t) at 8 h [7]: 27.1 µM·h; Cmax [8]: 10 µM; inhibition at 10 µM (hERG (KCNH2) [9]): 34%; IC50 (Cytochrome P450 2C8): 9.5 µM; fraction unbound [10]: 0.02; fraction unbound [11]: 0.011; IC50 [12]: 330 nM; ΔTm [13]: 13 °C |
| O=C(Nc1ccc(C(F)(F)F)cc1)C(=O)N1CCC(c2ccnc3ccc(F)cc23)CC1 | 16 | 5.5 | 90 | 9.5 | 77 |  |
| O=C(Nc1ccc(Cl)cc1)C(=O)N1CCC(c2ccnc3ccc(Cl)cc23)CC1 | 72 | 11 | 19 | 2.5 |  |  |
| N#Cc1ccc(NC(=O)C(=O)N2CCC(c3ccnc4ccc(F)cc34)CC2)cc1 | 28 | 11 | 36 | 5.5 | 61 |  |
| O=C(Nc1ccc(Cl)cc1)C(=O)N1CCCC2(CC1)COc1cc(C(F)(F)F)ccc12 (centres undefined) |  |  | 700 | 37 |  |  |
| NC(=O)/C(=N/O)Nc1ccc(F)c(Cl)c1 |  |  | 24000 |  |  | IC50 [14]: 78 µM |
| O=C(Nc1ccc(Cl)cn1)C(=O)N1CCC(c2ccnc3ccc(F)cc23)CC1 | 112 | 23 | 70 | 5.9 |  |  |
| O=C(Nc1ccc(Cl)cc1)C(=O)N1CCC(c2ccnc3ccc(F)cc23)C(F)(F)C1 (racemic) | 52 | 11.6 | 9 | 6.3 | 15 |  |
| N#Cc1ccc2nccc(C3CCN(C(=O)C(=O)Nc4ccc(Cl)cc4)CC3)c2c1 |  |  | 118 | 6.1 |  |  |
| NS(=O)(=O)NCCCNC(=O)/C(=N/O)Nc1ccc(F)c(Cl)c1 |  |  | 1200 |  |  | IC50 [14]: 10.3 µM |
| O=C(Nc1ccc(Cl)cc1)C(=O)N1CC[C@@H](c2ccnc3ccc(F)cc23)[C@@H](O)C1 (stereo in doubt) |  |  | 3000 | 37 |  |  |
| O=C(Nc1ccc(F)c(Cl)c1)C(=O)N1CCC(c2ccccc2)CC1 |  |  | 1800 |  |  | IC50 [14]: > 60 µM; ΔTm [13]: 1 °C |
| O=C(Nc1ccc(Cl)cc1)C(=O)N1CCC2(CC1)COc1cc(C(F)(F)F)ccc12 | 14 | < 1 |  | 21 | 86 |  |
| O=C(Nc1ccc(Cl)cc1)C(=O)N1CCC(c2ccnc3ccc(F)cc23)CC1 | 97 | 9 |  | 6.9 | 64 | half-life [6]: 108 min; AUC(0-t) at 8 h [7]: 19.3 µM·h; Cmax [8]: 5.1 µM; inhibition at 10 µM (hERG (KCNH2) [9]): 70%; IC50 (Cytochrome P450 2C9): 6.1 µM; IC50 (Cytochrome P450 2C8): 4.7 µM; IC50 (Cytochrome P450 2D6): > 10 µM; fraction unbound [10]: 0.011; fraction unbound [11]: 0.003; ΔTm [13]: 14 °C |

| SMILES | microsomal CLint [1] [µL/min/mg] | microsomal CLint [2] [µL/min/mg] | IC50 [3] [nM] | IC50 [4] [µM] | inhibition at 10 µM (hERG (KCNH2) [5]) [%] | further results |
| --- | --- | --- | --- | --- | --- | --- |
| O=C(Nc1ccc(C(F)F)cc1)C(=O)N1CCC(c2ccnc3ccc(F)cc23)CC1 | 76 | 17 | 21 | 5.8 |  |  |
| O=C(Nc1ccc(Cl)cc1F)C(=O)N1CCCC(c2ccnc3ccc(F)cc23)CC1 (racemic) | 202 | 108 | 8 | 5.9 | 66 |  |
| O=C(Nc1ccc(Cl)cn1)C(=O)N1CCC2(CC1)COc1cc(C(F)(F)F)ccc12 | 63 | 6 | 73 | 6.4 |  |  |
| O=C(Nc1ccc(Cl)cc1)C(=O)N1CCC(c2ccccc2)CC1 |  |  | 90 |  |  | IC50 [14]: > 60 µM; ΔTm [13]: 12 °C |
| CS(=O)(=O)NCCCNC(=O)/C(=N/O)Nc1ccc(F)c(Br)c1 |  |  | 340 |  |  | IC50 [14]: 5 µM |
| O=C(Nc1ccc(Cl)cn1)C(=O)N1CCC(c2ccnc(C(F)(F)F)c2Cl)CC1 | 36 | 3.5 | 301 | 22 |  |  |
| O=C(Nc1ccc(Cl)cn1)C(=O)N1CCC(c2cccc(Cl)c2Cl)CC1 | 77 | 40 | 245 |  |  |  |
| O=C(Nc1ccc(Cl)cn1)C(=O)N1CCC(c2ccnc3ccnn23)CC1 |  |  | 433 |  |  |  |
| O=C(Nc1ccc(Cl)cc1F)C(=O)N1CCC=C(c2ccnc3ccc(F)cc23)CC1 | 254 | 98 | 5 | 16 |  |  |
| O=C(Nc1ccc(Cl)cc1)C(=O)N1CCC2(CC1)COc1cc(C(F)F)ccc12 | 167 | 20 | 30 | 30 | 71 |  |
| O=C(Nc1ccc(Cl)cc1)C(=O)N1CC[C@@H](c2ccnc3ccc(F)cc23)[C@H](O)C1 (stereo in doubt) | 18 | 5 | 50 | 15.3 | 10 |  |
| O=C(Nc1ccc(Cl)cc1)C(=O)N1CCC(c2ccnc3cc(F)ccc23)CC1 | 55 | 26 | 19 |  | 85 |  |
| C[C@@H](C(=O)Nc1ccc(Cl)cc1)[C@H]1CC[C@@H](c2ccnc3ccc(F)cc32)CC1 | 386 | 21.3 |  |  |  | AUC(0-t) at 8 h [7]: 9.3 µM·h |
| O=C(/C(=N/O)Nc1ccc(F)c(Cl)c1)N1CCC(c2ccccc2)CC1 |  |  | 14000 |  |  | IC50 [14]: > 60 µM |
| O=C(Nc1ccc(Cl)cc1)C(=O)N1CC[C@H](c2ccnc3ccc(F)cc23)[C@H](O)C1 (stereo in doubt) |  |  | 110 | 17.2 |  |  |
| O=C(Nc1ccc(Cl)cn1)C(=O)N1CCC2(CC1)COc1ccccc12 |  |  | 490 |  |  |  |
